Test results: patent publication US20240150315A1, “BETA-2 ADRENORECEPTOR MODULATORS AND METHODS OF USING SAME” (University of Maryland, Baltimore, priority 2022, published 2024)
Entries after “also recorded” stand apart in the source; their conditions may differ.

Legend:
[1] = system: human precision-cut lung slices; test: bronchodilation of methacholine-contracted human precision-cut lung slices; conditions: for effect on ISO-induced increase in airway lumen area (bronchodilation): 100 nM compound, methacholine 1 μM
Procedure: (§1) To further examine the effect of PAMs and NAMs on β-agonists-mediated regulation of bronchorelaxation in a physiologically-relevant model, human and murine precision-cut lung slices were used. […] Lung slices were treated with increasing concentrations of ISO plus either vehicle or 100 nM of compounds 1001, 1002, and 1003, and a change in airway lumen area was determined.
(§2) FVB mice expressing human β2AR in smooth muscle were used in this study. The protocol for animal experiments is approved by the Institutional Animal Care and Use Committee. Murine lungs were perfused with 4% low melting agarose, allowed to solidify at 4° C. for 1 h. For human airways, a small lobe was inflated with 2% low-melting-point agarose and cores of 8 mm in diameter were made. Both human and murine lungs were then sliced (˜250 μm thick) using an oscillating tissue slicer (OTS-5000, FHC Inc). Lung slices cultured for 48 h were treated with methacholine (MCh, 1 μM), and images of the airways were obtained before and 10 min after MCh stimulation using EVOS FL Auto (Life technologies, Waltham, MA) microscope. The lung slices were treated with ISO (1 nM-10 μM) with vehicle or AMs and images of the airways were captured at 10 min intervals for a total of 50 min. Images of airways were used to calculate the area of airways using Image J software (NIH). Data from lung slice experiments were plotted as a percentage of methacholine-induced decrease in airway area compared to baseline area.

human ASM cells = test: collagen gel contraction assay with human ASM cells, histamine-induced contraction; assay type: cell-based; conditions: 10 μM histamine; for effect on ISO-mediated inhibition of histamine-induced contraction of human ASM cells: AMs 100 nM, 10 min pretreatment
Text: β-agonists are the drug of choice for management of acute bronchoconstriction in asthmatics, acting on the target ASM cells. The Gs-cAMP-protein kinase A signaling axis effected by β-agonists inhibits contraction of ASM cells via multiple mechanisms. Therefore, it was examined whether the modulation of this signaling pathway by the discovered PAM/NAMs translated into functional differences in β2AR control of ASM contraction. In a standard gel-contraction assay, the collagen gels containing human ASM cells were incubated with different concentrations of ISO with vehicle or 100 nM AMs for 10 min, followed by stimulation with 10 μM histamine. The gel images were obtained before and after treatment with different agonists using an EVOS microscope, and a change in the gel area was calculated. Treatment with 10 μM histamine decreased the area of the gels, consistent with contraction of ASM cells. Pretreatment of gels with ISO inhibited the histamine-induced decrease in gel area (FIG. 14A).
100 μl of ASM cell suspension (5×10^5 cells/ml) containing type-I rat tail collagen (1.5 mg/ml) in F-12 medium was seeded onto a 96-well plate. After 24 h, collagen gels were loosened from the plate. The contraction was initiated by adding histamine (10 μM), with or without pretreatment with increasing concentration of ISO, with vehicle or AMs for 10 min prior to histamine. Images were obtained using an EVOS live tissue microscope before and at 10 min intervals for 40 min after the addition of histamine. Gel area was obtained for each of the mages using NIH ImageJ software. Data were expressed as percentage gel contraction and calculated using the following equation. [(T0 gel area−T10 gel area)/T0 gel area×100%].

β2AR [2] = test: cell surface ELISA of β2AR expression (receptor internalization) in HEK293 cells; assay type: cell-based, human; conditions: 15 min; for effect on ISO-induced loss of cell surface expression of wild-type or mutant β2AR: AMs 100 nM with ISO 100 nM
Procedure: ISO induced receptor internalization was assessed via cell surface ELISA as previously described. Briefly, HEK-293 cells expressing β2AR were plated on 24-well plates. Cells were treated with 100 nM ISO with vehicle or 100 nM AMs for 15 minutes. Post treatment, cells were washed and fixed with 10% formalin-buffered saline for 10 minutes on ice, washed twice, and further processed using horseradish peroxidase-conjugated chicken polyclonal anti-HA antibody (Abcam). Cells were washed and incubated with 3,3′,5,5′-tetramethylbenzidine substrate and transferred to a 96-well plate containing sulfuric acid to stop the colorimetric reaction. FlexStation3 was used to measure absorbance at 450 nm. All values were normalized to basal value (no ISO/AMs) of wild-type receptor.

[3] = system: murine precision-cut lung slices; test: bronchodilation of methacholine-contracted murine precision-cut lung slices; set-up: species or system FVB mice expressing human β2AR in smooth muscle; conditions: for effect on ISO-induced increase in airway lumen area (bronchodilation): 100 nM compound, methacholine 1 μM
Procedure: as §1, §2

human wild type β2AR = target: T1, human wild type β2AR (Homo sapiens, UniProt P07550); test: ISO-induced cAMP accumulation (ELISA) in HEK293 cells overexpressing human wild type β2AR; assay type: cell-based; conditions: AMs 100 nM, different concentrations of ISO
T1 construct: host or cells: HEK293
T1 sequence (P07550 whole entry): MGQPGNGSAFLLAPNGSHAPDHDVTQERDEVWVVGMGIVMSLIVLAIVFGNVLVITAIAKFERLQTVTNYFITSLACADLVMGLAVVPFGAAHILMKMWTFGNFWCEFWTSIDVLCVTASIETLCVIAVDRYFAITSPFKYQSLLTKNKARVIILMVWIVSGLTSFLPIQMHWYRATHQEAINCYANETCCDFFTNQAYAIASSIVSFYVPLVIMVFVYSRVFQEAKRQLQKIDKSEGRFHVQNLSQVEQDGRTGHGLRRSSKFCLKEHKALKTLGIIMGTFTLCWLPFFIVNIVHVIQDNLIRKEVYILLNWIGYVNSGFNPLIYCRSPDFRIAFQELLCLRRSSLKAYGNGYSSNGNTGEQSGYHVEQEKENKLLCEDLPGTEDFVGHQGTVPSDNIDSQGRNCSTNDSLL
Text: Activation of β2AR by orthosteric ligands leads to activation of Gαs subunit, which in turn activates AC to hydrolyze ATP to produce cAMP. To determine the biological activity of the AMs of the β2AR, HEK293 cells overexpressing human wild type β2AR were stimulated with different concentrations of test compounds and evaluated for cAMP production using a cAMP ELISA. […] These compounds were used in subsequent studies.
HEK293 cell lines were obtained from the American Type Culture Collection (ATCC) and maintained in Dulbecco's modified Eagle's medium (DMEM) as described previously.
The human β2AR cDNA containing 3-HA tag at N-terminus subcloned into a pcDNA3.1 was obtained from www.cdna.org. […] Mutations were confirmed by DNA sequencing. HEK293 cells were transfected with cDNA expressing (wild type or mutant; see below) human β2AR using Lipofectamine 3000 (Invitrogen, Waltham, MA) and used for studies within 36-48 h, or were maintained in media containing G418 at 500 μg/ml concentration.
(§3) Cells were grown to full confluency in 24-well plates, serum-starved for 24 h, and then incubated with 1 mM IBMX for 10 min. Cells were then incubated with ISO (1 nM to 10 μM) or β2AR modulators alone or concomitantly for 10 min and cAMP levels were measured by ELISA (Life Technologies, Waltham, MA) as described previously.

mice = test: in vivo bronchodilation after MCh-induced bronchoconstriction by flexiVent; conditions: aerosol ISO with compound vs vehicle after MCh
Procedure: Compound 1001 augments isoproterenol (ISO)-induced bronchodilation in mice. Change in methacholine (MCh)-induced bronchoconstriction (lung resistance) upon aerosol treatment of mice with MCh followed by aerosol treatment of mice with ISO with vehicle or compound 1001 using flexiVent (Scireq) method was assessed.
In vivo lung function measurements. Lung mechanics are studied using flexiVent (Scireq) method. Briefly, anesthetized, intubated mice are ventilated with a tidal volume of 250 μl at 150 breaths/min. Mouse airways are exposed to increasing doses of methacholine (MCh; 1.56-50 mg/ml) using an in-line ultrasonic nebulizer. Following MCh-induced bronchoconstriction, mice are aerosolized with increasing concentrations of β-agonists (0.1-20 mg/ml)+AMs (100 nM). Airway resistance (Rn), tissue damping (G), and elastance (H) data (normalized to body weight) at individual doses of agonists are determined using the flexiWare software.

[4] = system: R131K, R131A, Y219F, Y219S, Y219A, F282Y, F282W, and F282A mutant β2ARs; test: ISO-induced cAMP generation in HEK293 cells expressing mutant β2AR; assay type: cell-based, human; conditions: AMs 100 nM, compared with wild-type β2AR
Procedure: To validate the identity of the computationally identified allosteric site, β2AR containing R131K, R131A, Y219F, Y219S, Y219A, F282Y, F282W, and F282A mutations was generated (FIG. 11A). Wild-type and mutant β2AR were expressed in HEK293 cells, and ISO-induced cAMP generation was measured in the presence or absence of the PAM compound 1001, or NAM compounds 1002 and 1003 (FIGS. 11B-E). The compounds were also tested at different concentrations of ISO in the cells expressing mutant β2AR (FIGS. 12A-D). The cAMP response was enhanced in cells expressing R131A and diminished in F282A mutant β2AR compared to cells expressing wild-type β2AR. […] Further, as expected, compound 1001 enhanced ISO-induced cAMP generation in cells expressing wild-type β2AR, and this effect was abolished in cells expressing mutant β2AR (FIGS. 11C-E, FIGS. 12B-D). Furthermore, NAM compounds 1002 and 1003 inhibited ISO-induced cAMP generation in wild-type β2AR expressing cells, and this inhibition was attenuated in cells expressing R131K, R131A, Y219F, Y219S, Y219A, F282Y, F282W, and F282A mutant β2ARs (FIGS. 11C-E, FIGS. 12B-D).
The human β2AR cDNA containing 3-HA tag at N-terminus subcloned into a pcDNA3.1 was obtained from www.cdna.org. Binding site residues PHE(F)282, TYR(Y)219, and ARG(R)131 were mutated to different amino acids using the QuikChange 11 XL Site-Directed Mutagenesis Kit (Agilent, Santa Clara, CA) per manufacturer's protocol. Mutations were confirmed by DNA sequencing. HEK293 cells were transfected with cDNA expressing (wild type or mutant; see below) human β2AR using Lipofectamine 3000 (Invitrogen, Waltham, MA) and used for studies within 36-48 h, or were maintained in media containing G418 at 500 μg/ml concentration. […]
as §3

β2AR [5] = target: T2, β2AR (Homo sapiens, UniProt P07550); test: β-arrestin2 recruitment to the β2AR, BRET assay in HEK293 cells; assay type: cell-based; conditions: AMs 100 nM, increasing concentrations of ISO
T2 construct: expressed in transfected cells; host or cells: HEK293
T2 sequence (P07550 whole entry): as above
Procedure: In addition to the canonical Gs signaling, the “balanced” b-agonists induce β-arrestin recruitment to the β2AR resulting in β2AR desensitization and activation of non-canonical signaling such as ERK1/2 signaling. […] Furthermore, the effect of AMs on ISO-induced phosphorylation of ERK1/2 was tested.
β-agonist-induced recruitment of β-arrestin to the β2AR was assessed by BRET assay as described previously. HEK293 cells were transfected with pcDNA-β-arrestin2-GFP10 and pcDNA3-β2AR-RlucII and after 48 h the cells were treated with increasing concentration of ISO and vehicle or 100 nM PAMs or NAMs followed by the addition of Coelenterazine 400a for 20 mins. Change in BRET was measured using a Tecan Infinite F500 microplate reader. BRET ratios were calculated by dividing the intensity of light emitted by the GFP10 acceptor by the total light emitted by the RLucII donor.

In the case of `CC(C)NCC(O)c1ccc(O)c(O)c1` (centres unmarked) [ISO, isoproterenol, reference compound], the “airway lumen area (bronchodilation)” value ([1]; ISO alone) is reported as “dose-dependent increase”, the “histamine-induced decrease in gel area” value (human ASM cells; ISO pretreatment alone) is reported as “inhibited” and the “cell surface expression of the β2AR” value (β2AR [2]; ISO 100 nM alone) is reported as “loss of cell surface expression”. The “airway lumen area (bronchodilation)” value ([3]; ISO alone) was “dose-dependent increase”.

`OCCC1CN(Cc2ccccn2)CCN1C1CCCC1` (centres unmarked) [compound 1001] was tested, and the “effect on ISO-induced cAMP accumulation” value (human wild type β2AR) was “most effective PAM; also recorded: enhanced”, the “effect on ISO-induced increase in airway lumen area (bronchodilation)” value (shortened to “effect on ISO-induced increase”) [1] was “significantly enhanced” and the “effect on ISO-mediated inhibition of histamine-induced contraction of human ASM cells” value (from here on “effect on ISO-mediated inhibition”) (human ASM cells) was “significantly enhanced”. The “effect on ISO-induced bronchodilation (lung resistance)” value (mice) was “augments”, the “effect on ISO-induced loss of cell surface expression of wild-type or mutant β2AR” value (from here on “effect on ISO-induced loss”) (β2AR [2]) was “did not affect” and the “effect of the modulator on ISO-induced cAMP generation in cells expressing mutant β2AR” value (“effect of the modulator” for short) [4] was “abolished”. For the same compound, the “effect on ISO-induced increase” value [3] was “significantly enhanced” and the “effect on ISO-induced β-arrestin2 recruitment to the β2AR (change in BRET)” value (from here on “effect … (change in BRET)”) (β2AR [5]) was “did not alter”.

With `Cc1nc2ccccc2nc1CN1CCN(C2CCCCC2)C(CCO)C1` (centres unmarked) [compound 1002] the “effect on ISO-induced cAMP accumulation” value (human wild type β2AR) was “most effective NAMs; also recorded: inhibited”, the “effect on ISO-induced increase” value [1] was “mitigated” and the “effect on ISO-mediated inhibition” value (human ASM cells) was “either slightly reduced or had no effect”. The “effect on ISO-induced loss” value (β2AR [2]) was “did not affect”, the “effect of the modulator” value [4] was “attenuated” and the “effect on ISO-induced increase” value [3] was “mitigated”. For the same compound, the “effect … (change in BRET)” value (β2AR [5]) was “did not alter”.

With `Cc1cnn(-c2cc(N/N=C/c3ccccc3O)ncn2)c1` [compound 1003] the “effect on ISO-induced cAMP accumulation” value (human wild type β2AR) was “most effective NAMs; also recorded: inhibited”, the “effect on ISO-induced increase” value [1] was “mitigated” and the “effect on ISO-mediated inhibition” value (human ASM cells) was “either slightly reduced or had no effect”. The “effect on ISO-induced loss” value (β2AR [2]) was “did not affect”, the “effect of the modulator” value [4] was “attenuated” and the “effect on ISO-induced increase” value [3] was “mitigated”. For the same compound, the “effect … (change in BRET)” value (β2AR [5]) was “did not alter”.
